Source: patent US9840508B2, “N-acyl-(3-substituted)-(8-methyl)-5,6-dihydro-[1,2,4]triazolo[4,3-a] pyrazines as selective NK-3 receptor antagonists, pharmaceutical composition, methods for use in NK-3 receptor-mediated disorders” (EUROSCREEN SA, priority 2013, dated 2017)
Where two headings read alike, the source gives them in different places.

Tests used:
human NK-3 receptor [1] = biological target: T1, human NK-3 receptor (Homo sapiens (Human), UniProt P29371); assay: Aequorin functional assay with human NK-3 receptor (antagonist testing); assay type: cell-based; settings: CHO cells expressing human NK-3 receptor; agonist NKA at EC80 (3 nM); read-out: Functional assay: Aequorin assay with human NK-3 receptor hNK-3 - AEQ (antagonist IC50)
T1 sequence (P29371 whole entry): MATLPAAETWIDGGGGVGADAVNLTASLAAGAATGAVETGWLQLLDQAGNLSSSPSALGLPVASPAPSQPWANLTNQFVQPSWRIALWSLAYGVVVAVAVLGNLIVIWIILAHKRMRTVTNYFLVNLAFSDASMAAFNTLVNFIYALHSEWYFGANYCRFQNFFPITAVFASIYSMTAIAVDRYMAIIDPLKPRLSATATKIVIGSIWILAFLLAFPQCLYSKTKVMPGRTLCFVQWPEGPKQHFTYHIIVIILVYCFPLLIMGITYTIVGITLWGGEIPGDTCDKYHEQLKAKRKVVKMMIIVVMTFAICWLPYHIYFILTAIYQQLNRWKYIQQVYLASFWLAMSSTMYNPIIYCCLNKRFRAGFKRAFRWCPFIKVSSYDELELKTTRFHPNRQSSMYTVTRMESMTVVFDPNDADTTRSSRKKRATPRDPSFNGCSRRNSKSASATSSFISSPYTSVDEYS
Protocol: Aequorin Assay with Human NK-3 Receptor
Changes in intracellular calcium levels are a recognized indicator of G protein-coupled receptor activity. The efficacy of compounds of the invention to inhibit NKA-mediated NK-3 receptor activation was assessed by an in vitro Aequorin functional assay. Chinese Hamster Ovary recombinant cells expressing the human NK-3 receptor and a construct that encodes the photoproteinapoaequorin were used for this assay. In the presence of the cofactor coelenterazine, apoaequorin emits a measurable luminescence that is proportional to the amount of intracellular (cytoplasmic) free calcium.
The antagonist activity of compounds of the invention is measured following pre-incubation (3 minutes) of the compound (at various concentrations) with the cells, followed by addition of the reference agonist (NKA) at a final concentration equivalent to the EC80 (3 nM) and recording of emitted light (FDSS 6000 Hamamatsu) over the subsequent 90-second period. The intensity of the emitted light is integrated using the reader software. Compound antagonist activity is measured based on the concentration-dependent inhibition of the luminescence response to the addition of Neurokinin A.
The IC50 values shown in Table 2 indicate that compounds of the invention are potent NK-3 antagonist compounds.

human NK-3 receptor [2] = biological target: T1, human NK-3 receptor; assay: 3H-SB222200 binding competition assay with human NK-3 receptor
Protocol: The affinity of compounds of the invention for the human NK-3 receptor was determined by measuring the ability of compounds of the invention to competitively and reversibly displace a well-characterized NK-3 radioligand in a concentration-dependent manner.
^3H-SB222200 Binding Competition Assay with Human NK-3 Receptor
The ability of compounds of the invention to inhibit the binding of the NK-3 receptor selective antagonist ^3H-SB222200 was assessed by an in vitro radioligand binding assay. Membranes were prepared from Chinese hamster ovary recombinant cells stably expressing the human NK-3 receptor. The membranes were incubated with 5 nM ^3H-SB222200 (ARC) in a HEPES 25 mM/NaCl 0.1M/CaCl2 1 mM/MgCl2 5 mM/BSA 0.5%/Saponin 10 μg/ml buffer at pH 7.4 and various concentrations of compounds of the invention. The amount of ^3H-SB222200 bound to the receptor was determined after filtration by the quantification of membrane associated radioactivity using the TopCount-NXT reader (Packard).

human NK-2 receptor = human NK-2 receptor (Homo sapiens (Human), UniProt P21452); assay: Selectivity binding assay, human NK-2 ([125I]-Neurokinin A); settings: CHO cell membranes; 0.1 nM [125I]-Neurokinin A; read-out: hNK-2 (Ki)
Chain of human NK-2 receptor (P21452 whole entry): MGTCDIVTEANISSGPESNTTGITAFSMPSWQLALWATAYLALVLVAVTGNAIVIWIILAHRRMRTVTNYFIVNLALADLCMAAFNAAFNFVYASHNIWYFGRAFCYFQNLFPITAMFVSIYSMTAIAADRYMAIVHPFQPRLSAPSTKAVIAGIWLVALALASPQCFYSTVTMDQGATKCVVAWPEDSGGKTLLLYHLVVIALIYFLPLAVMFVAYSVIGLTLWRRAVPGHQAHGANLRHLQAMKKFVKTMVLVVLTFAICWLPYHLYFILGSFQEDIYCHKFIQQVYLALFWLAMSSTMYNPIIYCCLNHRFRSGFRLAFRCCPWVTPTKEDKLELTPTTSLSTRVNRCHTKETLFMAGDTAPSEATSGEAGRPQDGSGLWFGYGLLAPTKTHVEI
Protocol: (§1) Selectivity of the compounds of the invention was determined over the other human NK receptors, namely NK-1 and NK-2 receptors.
The affinity of compounds of the invention for the NK-2 receptor was evaluated in CHO recombinant cells which express the human NK-2 receptor. Membrane suspensions were prepared from these cells. The following radioligand [^125I]-Neurokinin A (PerkinElmer Cat#NEX252) was used in this assay. Binding assays were performed in a 25 mM HEPES/1 mM CaCl2/5 mM MgCl2/0.5% BSA/10 μg/ml saponin, at pH 7.4. Binding assays consisted of 25 μl of membrane suspension (approximately 3.75 μg of protein/well in a 96 well plate), 50 μl of compound or reference ligand (Neurokinin A) at increasing concentrations (diluted in assay buffer) and 0.1 nM [^125I]-Neurokinin A. The plate was incubated 60 min at 25° C. in a water bath and then filtered over GF/C filters (Perkin Elmer, 6005174, presoaked in assay buffer without saponine for 2 h at room temperature) with a Filtration unit (Perkin Elmer). The radioactivity retained on the filters was measured by using the TopCount-NXT reader (Packard). Competition curves were obtained for compounds of the invention and the concentrations of compounds which displaced 50% of bound radioligand (IC50) were determined and then apparent inhibition constant Ki values were calculated by the following equation: Ki=IC50/(1+[L]/KD) where [L] is the concentration of free radioligand and KD is its dissociation constant at the receptor, derived from saturation binding experiments (Cheng and Prusoff, 1973).

human NK-1 receptor = human NK-1 receptor (Homo sapiens (Human), UniProt P25103); assay: Selectivity binding assay, human NK-1 ([3H] substance P); settings: CHO cell membranes; 2 nM [3H] substance P; read-out: hNK-1 (Ki)
Chain of human NK-1 receptor (P25103 whole entry): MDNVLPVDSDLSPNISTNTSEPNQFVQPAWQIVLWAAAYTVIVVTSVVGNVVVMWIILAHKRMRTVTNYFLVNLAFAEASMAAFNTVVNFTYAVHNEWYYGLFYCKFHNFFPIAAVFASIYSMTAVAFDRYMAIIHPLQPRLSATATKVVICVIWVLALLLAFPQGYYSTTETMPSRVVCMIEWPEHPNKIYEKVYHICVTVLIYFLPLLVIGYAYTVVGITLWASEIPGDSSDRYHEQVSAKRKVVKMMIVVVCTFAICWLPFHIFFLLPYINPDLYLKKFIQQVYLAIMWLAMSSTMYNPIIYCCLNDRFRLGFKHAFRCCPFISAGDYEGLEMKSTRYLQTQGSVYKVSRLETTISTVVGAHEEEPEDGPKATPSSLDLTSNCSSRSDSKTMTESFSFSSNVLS
Protocol: as §1
The affinity of compounds of the invention for the NK-1 receptor was evaluated in CHO recombinant cells which express the human NK-1 receptor. Membrane suspensions were prepared from these cells. The following radioligand: [^3H] substance P (PerkinElmer Cat#NET111520) was used in this assay. Binding assays were performed in a 50 mM Tris/5 mM MnCl2/150 mM NaCl/0.1% BSA at pH 7.4. Binding assays consisted of 25 μl of membrane suspension (approximately 5 μg of protein/well in a 96 well plate), 50 μl of compound or reference ligand (Substance P) at increasing concentrations (diluted in assay buffer) and 2 nM [^3H] substance P. The plate was incubated 60 min at 25° C. in a water bath and then filtered over GF/C filters (Perkin Elmer, 6005174, presoaked in 0.5% PEI for 2 h at room temperature) with a Filtration unit (Perkin Elmer). The radioactivity retained on the filters was measured by using the TopCount-NXT reader (Packard). Competition curves were obtained for compounds of the invention and the concentrations of compounds which displaced 50% of bound radioligand (IC50) were determined and then apparent inhibition constant Ki values were calculated by the following equation: Ki=IC50/(1+[L]/KD) where [L] is the concentration of free radioligand and KD is its dissociation constant at the receptor, derived from saturation binding experiments (Cheng and Prusoff, 1973).

[3] = CHO cell membranes, 5 nM 3H-SB222200, Table 2, read-out: Competitive binding assay with human NK-3 receptor hNK-3 (Ki)
[4] = Table 3 (selectivity table), read-out: hNK-3 (Ki)

SMILES	IC50 (human NK-3 receptor [1]) [nM]	Ki (human NK-3 receptor [2]; [3]) [nM]	Ki (human NK-3 receptor [2]; [4]) [nM]	Ki (human NK-2 receptor) [nM]	Ki (human NK-1 receptor) [nM]
Cc1ccc(-c2nnc3n2CCN(C(=O)c2ccc(F)cc2)[C@@H]3C)o1 [Compound 1, (R)-(4-fluorophenyl)(8-methyl-3-(5-methylfuran-2-yl)-5,6-dihydro-[1,2,4]triazolo[4,3-a]pyrazin-7(8H)-yl)methanone]	60	48	48	52000	> 30000
C[C@@H]1c2nnc(-c3csc(C(F)(F)F)n3)n2CCN1C(=O)c1ccc(F)cc1 [Compound 3, (R)-(4-fluorophenyl)(8-methyl-3-(2-(trifluoromethyl)thiazol-4-yl)-5,6-dihydro-[1,2,4]triazolo[4,3-a]pyrazin-7(8H)-yl)methanone]	20	22	22	6600	> 30000
